# Assay results: US8916586B2, “Anti-angiogenic compound” (University College Dublin—National University of Ireland, …, priority 2011, dated 2014)
# Entries after “also recorded” stand apart in the source; their conditions may differ.
# Assays:
# [1] = system: hyaloid vasculature in zebrafish; test: Zebrafish developmental angiogenesis assay: number of primary branches of hyaloid vasculature on dissected lens; assay type: in vivo
# [2] = system: IL-6 secreted from explant cultures of human colorectal cancers; test: IL-6 secretion from human colorectal tumour explants (ELISA); assay type: cell-based; conditions: 72 hours
# Experimental: (§1) Human colorectal tumour samples were taken directly from the pathology laboratory after surgery once adequate material was taken for diagnostic testing. The tumour samples were washed and stored in DMSO/tumour conditioning media (TCM). The samples were snap-frozen in liquid nitrogen and stored at −80° C. until compound testing was performed. Prior to compound testing, the tumours were thawed and incubated in fresh TCM for 24 hours. […] The TCM solutions were collected and stored at −20° C. and the remaining tumour explants were snap-frozen in liquid nitrogen and stored at −80° C. The protein content of each tumour sample was determined using the BCA protein assay. ELISA was used to determine the levels of VEGF, IL-8, MCP-1, GRO-α, IL-1β and IL-6. The secretion data were normalised according to the tumour sample's protein content.
# [3] = system: IL-1β secreted from explant cultures of human colorectal cancers; test: IL-1β secretion from human colorectal tumour explants (ELISA); assay type: cell-based; conditions: 72 hours; for level of IL-1β secreted by human tumour explants: 1 μM and 10 μM tested, concentration not given at place; for level of IL-1b secreted by human tumour explants: 10 μM
# Experimental: as §1
# [4] = system: zebrafish larvae; test: Visual function by optokinetic response (OKR) in zebrafish larvae; assay type: in vivo; conditions: treated from day 2-5 or day 3-5
# Experimental: (§2) Visual function was assessed using the optokinetic response, a behavioural assay that tests the ability of larval zebrafish to track moving stripes (Brockerhoff 2006). […] For these experiments the compounds were screened in zebrafish larvae as described above except that the drug (compound 11B) was added at either day 1, 2, 3 or 4, and all treated larvae were analysed at day 5.
# [5] = system: trunk intersegmental vessels of zebrafish; test: Quantification of intersegmental vessel number in zebrafish larvae; assay type: in vivo; conditions: for inhibition of developmental angiogenesis of the trunk intersegmental vessels / inhibition at 10 µM: 10 μM; for inhibition of developmental angiogenesis of the trunk intersegmental vessels: added at 6 hours post-fertilisation; for dose-dependence of inhibition of intersegmental vessel development: 0.1-10 μM; for dose-dependence of inhibition of intersegmental vessel development / inhibition at 10 µM: added at 6 hours post fertilisation; for inhibition at 10 µM: Danio rerio, read-out: inhibition of intersegmental vessel formation
# Experimental: […] Larvae were manually dechorionated, euthanised, and fixed in 4% PFA at 4° C. overnight before analysis. The larvae were then washed with PBS and transferred to depression slides for observation under epi-fluorescence in an Olympus SZX16 fluorescent microscope. The number of intersegmental vessels was counted and the average number was graphed for each drug. […] At the highest concentration (10 μM), 11B was seen to inhibit intersegmental vessel formation by 44%. 11F inhibited intersegmental vessel formation by 16% at the highest concentration (10 μM).
# [6] = system: dermal-derived normal human microvascular endothelial cells (HMVEC-d); test: In vitro HMVEC-d tube formation assay on Matrigel; assay type: cell-based; conditions: 100 nM, 20 hr
# Experimental: HMVEC-d were purchased from Clonetics, San Diego, Calif., USA. Cells were maintained in complete Endothelial Cell Medium (Clonetics® EGM®-2-MV BulletKit®) containing 500 ml of Endothelial Cell Basal Medium-2 and supplemented with hEGF, 0.5 ml; Hydrocortisone, 0.2 ml; GA-1000, 0.5 ml; FBS, 25 ml; VEGF, 0.5 ml; hFGF-B, 2.0 ml; R3-IGF-1, 0.5 ml; Ascorbic Acid, 0.5 ml in a 37° C. humidified atmosphere of 5% CO2/95% air. HMVEC-d were used for experiments between passages 4-8.
# Matrigel (Becton Dickenson) basement membrane matrix was used to examine HMVEC-d tube formation. Matrigel (50 μl) was plated in 96 well culture plate wells after thawing on ice and allowed to polymerise at 37° C. 5% CO2 humidified atmosphere for 1 hr. HMVEC-d were removed from culture, trypsinised, and resuspended in full strength EGM growth medium. Cells were seeded at a density of 50×10^4 cells/cm^2 and incubated for 20 hr at 37° C. 5% CO2 humidified atmosphere. Endothelial cell tubule formation was assessed using phase contrast microscopy and photographed. A connecting branch between two discrete ECs was counted as one tube. The tube analysis was determined from 3 sequential fields (magnification×10) focusing on the surface of the matrigel.
# [7] = system: mouse model of oxygen induced retinopathy (OIR); test: Mouse oxygen-induced retinopathy (OIR) model of ocular neovascularisation; assay type: in vivo; conditions: for avascular area of the retina in treated eyes: postnatal day 12-17, intravitreal
# Experimental: To assess the ability of compound 11B to inhibit ocular neovascularisation in mammalian eyes, 11B was tested in the mouse model of oxygen induced retinopathy (OIR). […] 11B was injected intravitreally into a mouse model of oxygen-induced retinopathy (OIR). The OIR model was generated by placing postnatal day 7 (P7) mouse pups into hyperoxia (75% oxygen) for 5 days and then removing them to normoxia (21%) on postnatal day 12 (P12). The hyperoxic (high oxygen) environment causes retinal blood vessels to regress between P7 and P12. The normoxic environment on P12 is a relatively hypoxic (low oxygen) environment for the mice and causes the growth of new blood vessels (angiogenesis). For all samples, eyes were enucleated, fixed, flat mounted and then stained with an isolectin antibody to visualise the blood vessels. Blood vessels were quantified and those treated with lead compounds compared to controls.
# [8] = system: zebrafish larvae; test: Gross morphology / toxicity and eye morphology of treated zebrafish larvae; assay type: in vivo; conditions: for toxic effects / gross morphology of larvae: treated 1-5 dpf
# Experimental: Prior to analysis of the intraocular vasculature, the control and treated larvae were observed under an Olympus SZX16 stereo zoom microscope and screened for general malformations. Overall patterning of the vasculature (fin, gut and intersegmental vessels) was examined for abnormalities (FIGS. 7B and 9A).
# as §2
smiles,measurement,setting,value
Oc1ccccc1/C=C/c1ccc2ccccc2n1 [11B],number of primary branches of hyaloid vasculature,"[1]; 5 μM, treated day 2-5",significant reduction
same,number of primary branches of hyaloid vasculature,"[1]; 5 μM, treated day 3-5",no significant effect
same,number of primary branches of hyaloid vasculature,"[1]; 5 μM, treated day 4-5",no significant effect
same,number of primary branches of hyaloid vasculature,"[1]; 10 μM, treated day 2-5",significant reduction
same,number of primary branches of hyaloid vasculature,"[1]; 10 μM, treated day 3-5",significant reduction
same,number of primary branches of hyaloid vasculature,"[1]; 10 μM, treated day 4-5",no effect
same,time-dependence of inhibition of developmental angiogenesis in the eye,"[1]; drug added at day 1, 2, 3 or 4, analysed at day 5",time-dependent effect; also recorded: time-dependent manner
same,level of IL-6 secreted by human tumour explants,"[2]; 1 μM and 10 μM tested, concentration not given at place",significantly reduced
same,level of IL-6 secreted by human tumour explants,[2]; 1 μM,significantly reduces
same,level of IL-6 secreted by human tumour explants,[2]; 10 μM,significantly reduces
same,level of IL-1β secreted by human tumour explants,[3],significantly reduced
same,level of IL-1b secreted by human tumour explants,[3],significantly reduces
same,"visual function, optokinetic response (OKR)",[4],no significant effect; also recorded: not statistically different from controls
same,inhibition of developmental angiogenesis of the trunk intersegmental vessels,[5],significant inhibition
same,dose-dependence of inhibition of intersegmental vessel development,[5],dose-dependent and statistically significant manner
same,inhibition at 10 µM,[5],44%
same,effect on existing (earlier formed) intersegmental vessels of the trunk,[5]; added from day 1-5,no effect; also recorded: intact
same,inhibition of HMVEC-d tubule formation,[6],significantly inhibits
same,avascular area of the retina in treated eyes,[7]; 0.5 μM,~33%
same,avascular area of the retina in treated eyes,[7]; 3 μM,~30%
same,increase in avascular retina relative to the avascular area in the P17 control,[7]; intraocular injections,~2.4 fold
same,inhibition of ocular neovascularisation in OIR model,[7]; intravitreal injection,inhibited angiogenesis; also recorded: can inhibit intraocular neovascularisation
same,wholemount morphology of larvae,"[8]; 10 μM, treated from day 2-5 or day 3-5",normal
same,toxic effects / gross morphology of larvae,[8],do not induce toxic effects
same,"morphology of eyes in transverse sections (layering of the retina, size of retina/lens, presence of optic nerve)",[8]; treated larvae,normal
"COc1cc2c(C3CCCN3C)cnc(Cc3ccc4c(c3)OCO4)c2cc1OC (centres unmarked) [11F, 1-(1,3-benzodioxol-5-ylmethyl)-6,7-dimethoxy-4-(1-methyl-2-pyrrolidinyl)isoquinoline]",level of IL-1β secreted by human tumour explants,[3],significantly reduced
same,level of IL-1b secreted by human tumour explants,[3],significantly reduced
same,inhibition of developmental angiogenesis of the trunk intersegmental vessels,[5],modest but significant inhibition
same,dose-dependence of inhibition of intersegmental vessel development,[5],dose-dependent and statistically significant manner
same,inhibition at 10 µM,[5],16%
same,reduction of tubule formation compared to control,[6],9%
same,toxic effects / gross morphology of larvae,[8],do not induce toxic effects
